Where a name gives a salt, the structure may show the parent alone.
Target: T1, Androgen Receptor (Homo sapiens, UniProt P10275, T878A)
T1 construct: the AR gene was modified, using CRISPR/Cas9 editing, so the expressed AR protein included an 11 amino acid HiBiT tag; endogenous in cells; host or cells: clonal LnCaP-derived line, AR gene edited by CRISPR/Cas9
Experiment: Androgen Receptor Degradation Assay (Nano-Glo HiBiT)
Format: cell-based
Details: LNCaP, 18 h, HiBiT-tagged AR in human LnCaP cells, read-out: mean asymptote max
Summary of the method: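 LnCaP cells with CRISPR-knocked-in N-terminal HiBiT-tagged AR (10,000/well) treated 18 h at 37 °C with PROTACs over 11 threefold concentrations; lytic HiBiT luminescence normalised to DMSO (0%) and cell-free (100%) controls. Relative DC50 = 4-parameter fit inflection; absolute DC50 = 50% degradation interpolation; Dmax = maximum observed degradation.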

T1 sequence (P10275 whole entry T878A): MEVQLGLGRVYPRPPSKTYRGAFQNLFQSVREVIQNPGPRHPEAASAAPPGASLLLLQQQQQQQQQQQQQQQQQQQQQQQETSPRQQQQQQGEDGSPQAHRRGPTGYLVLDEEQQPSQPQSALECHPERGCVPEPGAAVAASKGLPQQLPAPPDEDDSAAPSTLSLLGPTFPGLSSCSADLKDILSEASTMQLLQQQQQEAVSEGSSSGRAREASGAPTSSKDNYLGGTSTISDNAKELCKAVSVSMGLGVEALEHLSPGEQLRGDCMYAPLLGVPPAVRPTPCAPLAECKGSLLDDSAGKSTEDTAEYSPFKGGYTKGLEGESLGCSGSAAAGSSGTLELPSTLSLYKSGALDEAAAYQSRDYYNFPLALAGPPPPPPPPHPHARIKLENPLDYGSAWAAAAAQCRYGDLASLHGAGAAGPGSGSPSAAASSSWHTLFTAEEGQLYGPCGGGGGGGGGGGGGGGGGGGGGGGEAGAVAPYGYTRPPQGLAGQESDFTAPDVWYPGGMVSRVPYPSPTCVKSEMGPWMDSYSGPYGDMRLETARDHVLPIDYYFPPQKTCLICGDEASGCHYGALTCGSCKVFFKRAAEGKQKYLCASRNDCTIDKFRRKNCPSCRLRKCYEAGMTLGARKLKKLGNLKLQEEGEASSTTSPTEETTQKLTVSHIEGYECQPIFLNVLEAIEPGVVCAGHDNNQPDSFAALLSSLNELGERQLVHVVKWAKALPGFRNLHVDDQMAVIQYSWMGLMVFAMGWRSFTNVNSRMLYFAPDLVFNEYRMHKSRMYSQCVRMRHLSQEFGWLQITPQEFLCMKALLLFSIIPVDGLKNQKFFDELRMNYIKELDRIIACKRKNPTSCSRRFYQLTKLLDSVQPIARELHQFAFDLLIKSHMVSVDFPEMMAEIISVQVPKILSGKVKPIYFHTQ
T1 sequence (Q96SW2 whole entry partner): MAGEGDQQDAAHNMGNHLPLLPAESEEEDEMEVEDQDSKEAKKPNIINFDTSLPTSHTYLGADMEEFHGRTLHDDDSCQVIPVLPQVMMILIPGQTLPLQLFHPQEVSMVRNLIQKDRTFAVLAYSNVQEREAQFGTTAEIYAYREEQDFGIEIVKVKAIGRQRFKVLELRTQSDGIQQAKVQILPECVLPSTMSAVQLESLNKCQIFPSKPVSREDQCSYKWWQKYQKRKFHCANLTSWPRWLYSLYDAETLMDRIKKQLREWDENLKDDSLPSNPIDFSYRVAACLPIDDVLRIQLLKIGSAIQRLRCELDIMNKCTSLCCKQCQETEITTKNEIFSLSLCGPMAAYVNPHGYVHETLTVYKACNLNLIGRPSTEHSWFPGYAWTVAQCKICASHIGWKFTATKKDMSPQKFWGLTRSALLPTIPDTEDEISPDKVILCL
T1 sequence (Q16531 whole entry partner): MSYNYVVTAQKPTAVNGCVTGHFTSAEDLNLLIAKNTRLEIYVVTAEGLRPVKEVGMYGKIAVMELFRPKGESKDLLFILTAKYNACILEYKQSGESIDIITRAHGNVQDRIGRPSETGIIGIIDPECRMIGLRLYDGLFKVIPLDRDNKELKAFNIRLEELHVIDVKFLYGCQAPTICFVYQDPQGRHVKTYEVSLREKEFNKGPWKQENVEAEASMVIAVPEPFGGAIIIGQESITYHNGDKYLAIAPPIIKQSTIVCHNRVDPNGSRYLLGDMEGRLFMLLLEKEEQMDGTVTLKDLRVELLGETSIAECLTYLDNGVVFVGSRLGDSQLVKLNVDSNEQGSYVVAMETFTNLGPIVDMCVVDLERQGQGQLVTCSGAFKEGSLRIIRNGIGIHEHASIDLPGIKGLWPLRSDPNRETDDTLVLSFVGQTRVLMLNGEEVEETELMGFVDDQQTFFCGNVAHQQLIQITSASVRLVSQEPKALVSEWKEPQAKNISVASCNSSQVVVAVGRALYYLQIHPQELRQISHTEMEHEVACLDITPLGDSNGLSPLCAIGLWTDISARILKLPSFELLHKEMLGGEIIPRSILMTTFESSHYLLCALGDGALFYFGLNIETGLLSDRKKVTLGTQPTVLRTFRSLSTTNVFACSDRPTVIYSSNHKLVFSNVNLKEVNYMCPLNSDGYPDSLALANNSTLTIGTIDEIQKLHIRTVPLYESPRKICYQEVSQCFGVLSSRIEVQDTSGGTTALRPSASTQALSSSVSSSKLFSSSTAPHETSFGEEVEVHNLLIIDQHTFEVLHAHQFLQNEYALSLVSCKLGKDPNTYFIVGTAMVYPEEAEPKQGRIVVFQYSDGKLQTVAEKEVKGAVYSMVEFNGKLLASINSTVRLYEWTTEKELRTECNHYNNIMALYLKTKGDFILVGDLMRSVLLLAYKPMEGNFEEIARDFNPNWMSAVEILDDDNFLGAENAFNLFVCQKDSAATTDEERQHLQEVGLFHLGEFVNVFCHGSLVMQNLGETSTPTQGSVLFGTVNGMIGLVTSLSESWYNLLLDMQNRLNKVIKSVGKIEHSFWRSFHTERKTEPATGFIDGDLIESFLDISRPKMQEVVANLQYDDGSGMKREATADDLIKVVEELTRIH

Structure (SMILES)	Dmax [%]
CC1(C)C(=O)N(c2ccc(C#N)c(C(F)(F)F)c2)C(=S)N1c1ccc(N2CCC(CCN3CCC(n4ncc5c(N6CCC(=O)NC6=O)cncc54)CC3)CC2)cc1 [EAR97, 4-(3-(4-(4-(2-(4-(4-(2,4-Dioxotetrahydropyrimidin-1(2H)-yl)-1H-pyrazolo[3,4-c]pyridin-1-yl)piperidin-1-yl)ethyl)piperidin-1-yl)phenyl)-4,4-dimethyl-5-oxo-2-thioxoimidazolidin-1-yl)-2-(trifluoromethyl)benzonitrile formate]	≥ 50
CC1(C)C(=O)N(c2ccc(C#N)c(C(F)(F)F)c2)C(=S)N1c1ccc(N2CCC(CN3CCC(n4ncc5c(N6CCC(=O)NC6=O)cncc54)CC3)CC2)cc1 [EAR98, 4-(3-(4-(4-((4-(4-(2,4-Dioxotetrahydropyrimidin-1(2H)-yl)-1H-pyrazolo[3,4-c]pyridin-1-yl)piperidin-1-yl)methyl)piperidin-1-yl)phenyl)-4,4-dimethyl-5-oxo-2-thioxoimidazolidin-1-yl)-2-(trifluoromethyl)benzonitrile]	≥ 50
CC1(C)C(=O)N(c2ccc(C#N)c(C(F)(F)F)c2)C(=S)N1c1ccc(N2CCC(CN3CCC(n4ccc5c(N6CCC(=O)NC6=O)cccc54)CC3)CC2)cc1 [EAR99, 4-(3-(4-(4-((4-(4-(2,4-Dioxotetrahydropyrimidin-1(2H)-yl)-1H-indol-1-yl)piperidin-1-yl)methyl)piperidin-1-yl)phenyl)-4,4-dimethyl-5-oxo-2-thioxoimidazolidin-1-yl)-2-(trifluoromethyl)benzonitrile formate]	≥ 50
CC1(C)C(=O)N(c2ccc(C#N)c(C(F)(F)F)c2)C(=S)N1c1ccc(N2CCC(CCN3CCC(n4ccc5c(N6CCC(=O)NC6=O)cncc54)CC3)CC2)cc1 [EAR100, 4-(3-(4-(4-(2-(4-(4-(2,4-Dioxotetrahydropyrimidin-1(2H)-yl)-1H-pyrrolo[2,3-c]pyridin-1-yl)piperidin-1-yl)ethyl)piperidin-1-yl)phenyl)-4,4-dimethyl-5-oxo-2-thioxoimidazolidin-1-yl)-2-(trifluoromethyl)benzonitrile formate]	≥ 50
CC1(C)C(=O)N(c2ccc(C#N)c(C(F)(F)F)c2)C(=S)N1c1ccc(N2CCC(CN3CCC(n4ccc5c(N6CCC(=O)NC6=O)cncc54)CC3)CC2)cc1 [EAR101, 4-(3-(4-(4-((4-(4-(2,4-Dioxotetrahydropyrimidin-1(2H)-yl)-1H-pyrrolo[2,3-c]pyridin-1-yl)piperidin-1-yl)methyl)piperidin-1-yl)phenyl)-4,4-dimethyl-5-oxo-2-thioxoimidazolidin-1-yl)-2-(trifluoromethyl)benzonitrile]	≥ 50
CC1(C)C(=O)N(c2ccc(C#N)c(C(F)(F)F)c2)C(=S)N1c1ccc(OCCCN2CCC(n3ccc4c(N5CCC(=O)NC5=O)cccc43)CC2)cc1 [EAR103, 4-(3-(4-(3-(4-(4-(2,4-Dioxotetrahydropyrimidin-1(2H)-yl)-1H-indol-1-yl)piperidin-1-yl)propoxy)phenyl)-4,4-dimethyl-5-oxo-2-thioxoimidazolidin-1-yl)-2-(trifluoromethyl)benzonitrile formate]	≥ 50
CC1(C)C(=O)N(c2ccc(C#N)c(C(F)(F)F)c2)C(=S)N1c1ccc(OCCCN2CCC(n3ccc4c(N5CCC(=O)NC5=O)cncc43)CC2)cc1 [EAR104, 4-(3-(4-(3-(4-(4-(2,4-Dioxotetrahydropyrimidin-1(2H)-yl)-1H-pyrrolo[2,3-c]pyridin-1-yl)piperidin-1-yl)propoxy)phenyl)-4,4-dimethyl-5-oxo-2-thioxoimidazolidin-1-yl)-2-(trifluoromethyl)benzonitrile]	≥ 50
C[C@@H]1CN(c2ccc(C#N)c(Cl)c2)[C@@H](C)CN1C(=O)Nc1cnc(N2CCC(CN3CCC(n4ccc5c(N6CCC(=O)NC6=O)cncc54)CC3)CC2)nc1 [EAR106, (2R,5S)-4-(3-Chloro-4-cyanophenyl)-N-(2-(4-((4-(4-(2,4-dioxotetrahydropyrimidin-1(2H)-yl)-1H-pyrrolo[2,3-c]pyridin-1-yl)piperidin-1-yl)methyl)piperidin-1-yl)pyrimidin-5-yl)-2,5-dimethylpiperazine-1-carboxamide]	≥ 50
CC(C)n1ccc2c(N3CCC(=O)NC3=O)cc(C(=O)N3CCN(CC4CCN(c5ncc(NC(=O)N6C[C@H](C)N(c7ccc(C#N)c(Cl)c7)C[C@H]6C)cn5)CC4)CC3)cc21 [EAR107, (2R,5S)-4-(3-Chloro-4-cyanophenyl)-N-(2-(4-((4-(4-(2,4-dioxotetrahydropyrimidin-1(2H)-yl)-1-isopropyl-1H-indole-6-carbonyl)piperazin-1-yl)methyl)piperidin-1-yl)pyrimidin-5-yl)-2,5-dimethylpiperazine-1-carboxamide]	≥ 50
C[C@@H]1CN(c2ccc(C#N)c(Cl)c2)[C@@H](C)CN1C(=O)Nc1ccc(N2CCC(CN3CCC(n4ccc5c(N6CCC(=O)NC6=O)cccc54)CC3)CC2)nc1 [EAR108, (2R,5S)-4-(3-Chloro-4-cyanophenyl)-N-(6-(4-((4-(4-(2,4-dioxotetrahydropyrimidin-1(2H)-yl)-1H-indol-1-yl)piperidin-1-yl)methyl)piperidin-1-yl)pyridin-3-yl)-2,5-dimethylpiperazine-1-carboxamide]	≥ 50
C[C@@H]1CN(c2ccc(C#N)c(Cl)c2)[C@@H](C)CN1C(=O)Nc1ccc(OCCCCN2CCC(n3ccc4c(N5CCC(=O)NC5=O)cccc43)CC2)nc1 [EAR109, (2R,5S)-4-(3-Chloro-4-cyanophenyl)-N-(6-(4-(4-(4-(2,4-dioxotetrahydropyrimidin-1(2H)-yl)-1H-indol-1-yl)piperidin-1-yl)butoxy)pyridin-3-yl)-2,5-dimethylpiperazine-1-carboxamide]	≥ 50
C[C@@H]1CN(c2ccc(C#N)c(Cl)c2)[C@@H](C)CN1C(=O)Nc1ccc(OCCCCN2CCC(n3ccc4c(N5CCC(=O)NC5=O)cncc43)CC2)nc1 [EAR111, (2R,5S)-4-(3-Chloro-4-cyanophenyl)-N-(6-(4-(4-(4-(2,4-dioxotetrahydropyrimidin-1(2H)-yl)-1H-pyrrolo[2,3-c]pyridin-1-yl)piperidin-1-yl)butoxy)pyridin-3-yl)-2,5-dimethylpiperazine-1-carboxamide]	≥ 50
C[C@@H]1CN(C(=O)Nc2cnc(N3CCC(CN4CCC(n5ccc6c(N7CCC(=O)NC7=O)cccc65)CC4)CC3)nc2)[C@@H](C)CN1c1ccc(C#N)c(Cl)c1 [EAR116, (2S,5R)-4-(3-Chloro-4-cyanophenyl)-N-(2-(4-((4-(4-(2,4-dioxotetrahydropyrimidin-1(2H)-yl)-1H-indol-1-yl)piperidin-1-yl)methyl)piperidin-1-yl)pyrimidin-5-yl)-2,5-dimethylpiperazine-1-carboxamide]	≥ 50
C[C@@H]1CN(c2ccc(C#N)c(Cl)c2)[C@@H](C)CN1C(=O)Nc1ccc(N2CCC(CCN3CCC(n4ccc5c(N6CCC(=O)NC6=O)cccc54)CC3)CC2)nc1 [EAR117, (2R,5S)-4-(3-Chloro-4-cyanopheny)-N-(6-(4-(2-(4-(4-(2,4-dioxotetrahydropyrimidin-1(2H)-yl)-1H-indol-1-yl)piperidin-1-yl)ethyl)piperidin-1-yl)pyridin-3-yl)-2,5-dimethylpiperazine-1-carboxamide]	≥ 50
N#Cc1ccc(O[C@H]2CC[C@H](NC(=O)c3ccc(N4CCC(CN5CCC(n6ccc7c(N8CCC(=O)NC8=O)ncnc76)CC5)CC4)nn3)CC2)cc1Cl [EAR119, N-((1r,4r)-4-(3-Chloro-4-cyanophenoxy)cyclohexyl)-6-(4-((4-(4-(2,4-dioxotetrahydropyrimidin-1(2H)-yl)-7H-pyrrolo[2,3-d]pyrimidin-7-yl)piperidin-1-yl)methyl)piperidin-1-yl)pyridazine-3-carboxamide]	≥ 50
C[C@@H]1CN(C(=O)Nc2ccc(OCCCCN3CCC(n4ccc5c(N6CCC(=O)NC6=O)cccc54)CC3)nc2)[C@@H](C)CN1c1ccc(C#N)c(Cl)c1 [EAR121, (2S,5R)-4-(3-chloro-4-cyanophenyl)-N-(6-(4-(4-(4-(2,4-dioxotetrahydropyrimidin-1(2H)-yl)-1H-indol-1-yl)piperidin-1-yl)butoxy)pyridin-3-yl)-2,5-dimethylpiperazine-1-carboxamide]	≥ 50
N#Cc1ccc(O[C@H]2CC[C@H](NC(=O)c3ccc(N4CCO[C@H](CN5CCC(n6ccc7c(N8CCC(=O)NC8=O)cccc76)CC5)C4)nn3)CC2)cc1Cl [EAR123, N-((1r,4R)-4-(3-Chloro-4-cyanophenoxy)cyclohexyl)-6-((R)-2-((4-(4-(2,4-dioxotetrahydropyrimidin-1(2H)-yl)-1H-indol-1-yl)piperidin-1-yl)methyl)morpholino)pyridazine-3-carboxamide]	≥ 50
N#Cc1ccc(O[C@H]2CC[C@H](NC(=O)c3ccc(N4CCO[C@@H](CN5CCC(n6ccc7c(N8CCC(=O)NC8=O)cccc76)CC5)C4)nn3)CC2)cc1Cl [EAR125, N-((1r,4S)-4-(3-Chloro-4-cyanophenoxy)cyclohexyl)-6-((S)-2-((4-(4-(2,4-dioxotetrahydropyrimidin-1(2H)-yl)-1H-indol-1-yl)piperidin-1-yl)methyl)morpholino)pyridazine-3-carboxamide]	≥ 50
N#Cc1ccc(O[C@H]2CC[C@H](NC(=O)c3ccc(CCN4CCC(n5ccc6c(N7CCC(=O)NC7=O)cccc65)CC4)cc3)CC2)cc1Cl [EAR130, N-((1r,4r)-4-(3-Chloro-4-cyanophenoxy)cyclohexyl)-4-(2-(4-(4-(2,4-dioxotetrahydropyrimidin-1(2H)-yl)-1H-indol-1-yl)piperidin-1-yl)ethyl)benzamide]	≥ 50
N#Cc1ccc(O[C@H]2CC[C@H](NC(=O)c3ccc(N4CCC(CN5CC(n6ccc7c(N8CCC(=O)NC8=O)cccc76)C5)CC4)nn3)CC2)cc1Cl [EAR131, N-((1r,4r)-4-(3-chloro-4-cyanophenoxy)cyclohexyl)-6-(4-((3-(4-(2,4-dioxotetrahydropyrimidin-1(2H)-yl)-1H-indol-1-yl)azetidin-1-yl)methyl)piperidin-1-yl)pyridazine-3-carboxamide]	≥ 50
